Each compound was assayed against T1, FPRL-1 (Homo sapiens, UniProt P25090) (assay: FPRL-1 Ga16-CHO compound-induced calcium activity (FLIPR Tetra)). Conditions: CHO-Gα16 cells stably expressing FPRL1; calcium activity on FLIPR Tetra; tested at 0.61 to 10,000 nM; read-out: FPRL-1 Ga16-CHO EC50.
T1 construct: expressed in transfected cells; host or cells: CHO-Gα16 cells stably expressing FPRL1
T1 sequence (P25090 1-351): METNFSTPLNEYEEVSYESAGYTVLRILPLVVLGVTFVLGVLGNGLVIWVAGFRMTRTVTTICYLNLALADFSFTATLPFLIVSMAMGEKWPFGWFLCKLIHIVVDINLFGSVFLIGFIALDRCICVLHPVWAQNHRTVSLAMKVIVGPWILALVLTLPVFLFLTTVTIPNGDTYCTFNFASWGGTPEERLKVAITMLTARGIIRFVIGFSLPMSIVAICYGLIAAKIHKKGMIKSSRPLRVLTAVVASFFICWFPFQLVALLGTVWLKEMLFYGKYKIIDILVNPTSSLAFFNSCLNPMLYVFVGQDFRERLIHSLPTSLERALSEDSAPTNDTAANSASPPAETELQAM
Assay type: cell-based
Experimental: HEK-Gα16 and CHO-Gα16 cells stably expressing FPRL1 were cultured in (F12, 10% FBS, 1% PSA, 400 μg/ml geneticin and 50 μg/ml hygromycin) and HEK-Gqi5 cells stable expressing FPR1 were cultured in (DMEM high glucose, 10% FBS, 1% PSA, 400 μg/ml geneticin and 50 μg/ml hygromycin). In general, the day before the experiment, 18,000 cells/well were plated in a 384-well clear bottom poly-d-lysine coated plate. The following day the screening compound-induced calcium activity was assayed on the FLIPR^Tetra. The drug plates were prepared in 384-well microplates using the EP3 and the MultiPROBE robotic liquid handling systems. Compounds were tested at concentrations ranging from 0.61 to 10,000 nM. Results are expressed as EC50 (nM) and efficacy values.

| EC50 [µM] | SMILES |
| --- | --- |
| < 0.002 | CC(C)C1(C(C)C)NC(=O)N(NC(=O)Nc2ccc(Br)cc2)C1=O [Compound 67, 1-(4-Bromophenyl)-3-[2,5-dioxo-4,4-di(propan-2-yl)imidazolidin-1-yl]urea] |
| 0.114 | CC1(Cc2c[nH]c3ccccc23)NC(=O)N(NC(=O)Nc2ccc(Br)cc2)C1=O (stereo not shown) [Compound 64, 1-(4-Bromophenyl)-3-[4-(1H-indol-3-ylmethyl)-4-methyl-2,5-dioxoimidazolidin-1-yl]urea] |
| 2.59 | CCc1ccc2[nH]c(C3(C)NC(=O)N(c4ccc(Br)cc4)C3=O)cc2c1 (stereo not shown) [3-(4-Bromophenyl)-5-(5-ethyl-1H-indol-2-yl)-5-methylimidazolidine-2,4-dione] |
| 0.459 | CC(C)C1(CC(=O)O)NC(=O)N(NC(=O)Nc2ccc(Br)cc2)C1=O (stereo not shown) [Compound 81, 2-(1-(3-(4-Bromophenyl)ureido)-4-isopropyl-2,5-dioxoimidazolidin-4-yl)acetic acid] |
| 0.027 | CCC1(CC)NC(=O)N(NC(=O)Nc2ccc(Cl)cc2)C1=O [Compound 2, 1-(4-Chlorophenyl)-3-(4,4-diethyl-2,5-dioxoimidazolidin-1-yl)urea] |
| 0.333 | CC1(CCc2ccc(Cl)cc2)NC(=O)N(NC(=O)Nc2ccc(Br)cc2)C1=O (stereo not shown) [Compound 33, 1-(4-Bromophenyl)-3-(4-(4-chlorophenethyl)-4-methyl-2,5-dioxoimidazolidin-1-yl)urea] |
| 0.0162 | CC(C)C1(CC(=O)NCCO)NC(=O)N(NC(=O)Nc2ccc(Br)cc2)C1=O (stereo not shown) [Compound 84, 2-(1-(3-(4-Bromophenyl)ureido)-4-isopropyl-2,5-dioxoimidazolidin-4-yl)-N-(2-hydroxyethyl)acetamide] |
| 0.0143 | O=C(Nc1ccc(Br)cc1)NN1C(=O)NC(C2CC2)(C2CC2)C1=O [Compound 66, 1-(4-Bromophenyl)-3-(4,4-dicyclopropyl-2,5-dioxoimidazolidin-1-yl)urea] |
| 0.0513 | CC(C)C1(CC(=O)NCC(N)=O)NC(=O)N(NC(=O)Nc2ccc(Br)cc2)C1=O (stereo not shown) [Compound 96, N-(2-Amino-2-oxoethyl)-2-(1-(3-(4-bromophenyl)ureido)-4-isopropyl-2,5-dioxoimidazolidin-4-yl)acetamide] |
| 0.21 | CC1(CCc2ccc(C(=O)O)cc2)NC(=O)N(NC(=O)Nc2ccc(Br)cc2)C1=O (stereo not shown) [Compound 77, 4-(2-(1-(3-(4-Bromophenyl)ureido)-4-methyl-2,5-dioxoimidazolidin-4-yl)ethyl)benzoic acid] |
| 0.0286 | CC1(CCc2ccncc2)NC(=O)N(NC(=O)Nc2ccc(Br)cc2F)C1=O (stereo not shown) [Compound 55] |
| 0.0212 | CC(C)C1(CCO)NC(=O)N(NC(=O)Nc2ccc(Br)cc2)C1=O (stereo not shown) [Compound 75, 1-(4-Bromophenyl)-3-(4-(2-hydroxyethyl)-4-isopropyl-2,5-dioxoimidazolidin-1-yl)urea] |
| 0.204 | COC(=O)c1ccc(CCC2(C)NC(=O)N(NC(=O)Nc3ccc(Br)cc3)C2=O)cc1 (stereo not shown) [Compound 58, Methyl 4-(2-(1-(3-(4-Bromophenyl)ureido)-4-methyl-2,5-dioxoimidazolidin-4-yl)ethyl)benzoate] |
| 0.0521 | CC1(COc2ccccc2)NC(=O)N(NC(=O)Nc2ccc(Br)cc2F)C1=O (stereo not shown) [Compound 28, 1-(4-Bromo-2-fluorophenyl)-3-(4-methyl-2,5-dioxo-4-(phenoxymethyl)imidazolidin-1-yl)urea] |
| 1.23 | CCC1(CC)NC(=O)N(NC(=O)Nc2ccc(C#N)cc2)C1=O [Compound 5, 1-(4-Cyanophenyl)-3-(4,4-diethyl-2,5-dioxoimidazolidin-1-yl)urea] |
| 0.0091 | CCC1(CC)NC(=O)N(NC(=O)Nc2ccc(Br)cc2)C1=O [Compound 1, 1-(4-Bromophenyl)-3-(4,4-diethyl-2,5-dioxoimidazolidin-1-yl)urea] |
| 0.133 | CC(C)C1(CC(=O)NCC(=O)O)NC(=O)N(NC(=O)Nc2ccc(Br)cc2)C1=O (stereo not shown) [Compound 92, 2-(2-(1-(3-(4-Bromophenyl)ureido)-4-isopropyl-2,5-dioxoimidazolidin-4-yl)acetamido)acetic acid] |
| 0.0069 | CC1(CCc2ccco2)NC(=O)N(NC(=O)Nc2ccc(Br)cc2)C1=O (stereo not shown) [Compound 35] |

| EC50 [µM] | SMILES |
| --- | --- |
| 0.0149 | CCC1(CCc2ccccc2C(=O)OC)NC(=O)N(NC(=O)Nc2ccc(Br)cc2F)C1=O (stereo not shown) [Compound 61, Methyl 2-(2-(1-(3-(4-bromo-2-fluorophenyl)ureido)-4-ethyl-2,5-dioxoimidazolidin-4-yl)ethyl)benzoate] |
| 0.0239 | O=C(Nc1ccc(Br)cc1F)NN1C(=O)NC2(CCCC2)C1=O [Compound 11, 1-(4-Bromo-2-fluorophenyl)-3-(2,4-dioxo-1,3-diazaspiro[4.4]nonan-3-yl)urea] |
| 0.233 | O=C(Nc1ccc(Br)cc1F)NN1C(=O)NC2(CCCCC2)C1=O [Compound 15, 1-(4-Bromo-2-fluorophenyl)-3-(2,4-dioxo-1,3-diazaspiro[4.5]decan-3-yl)urea] |
| 0.0005 | CCC1(CCc2ccccc2)NC(=O)N(NC(=O)Nc2ccc(Br)cc2)C1=O (stereo not shown) [Compound 30, 1-(4-Bromophenyl)-3-(4-ethyl-2,5-dioxo-4-(phenethyl)imidazolidin-1-yl)urea] |
| 0.05 | CC(C)C1(CO)NC(=O)N(NC(=O)Nc2ccc(Br)cc2F)C1=O (stereo not shown) [Compound 76, 1-(4-Bromo-2-fluorophenyl)-3-(4-(2-hydroxymethyl)-4-isopropyl-2,5-dioxoimidazolidin-1-yl)urea] |
| 0.00097 | CC1(CCc2ccccc2O)NC(=O)N(NC(=O)Nc2ccc(Br)cc2)C1=O (stereo not shown) [Compound 50, 1-(4-Bromophenyl)-3-(4-(2-hydroxyphenethyl)-4-methyl-2,5-dioxoimidazolidin-1-yl)urea] |
| 0.0074 | CC1(CCc2ccc(O)c(F)c2)NC(=O)N(NC(=O)Nc2ccc(Br)cc2F)C1=O (stereo not shown) [Compound 48, 1-(4-Bromo-2-fluorophenyl)-3-{4-[2-(3-fluoro-4-hydroxyphenyl)ethyl]-4-methyl-2,5-dioxoimidazolidin-1-yl}urea] |
| 0.0111 | CC1(CCc2cccc(F)c2)NC(=O)N(NC(=O)Nc2ccc(Br)cc2)C1=O (stereo not shown) [Compound 41, 1-(4-Bromophenyl)-3-(4-(3-fluorophenethyl)-4-methyl-2,5-dioxoimidazolidin-1-yl)urea] |
| 0.017 | CC1(CCc2ccc(F)cc2)NC(=O)N(NC(=O)Nc2ccc(Br)cc2)C1=O (stereo not shown) [Compound 39, 1-(4-Bromophenyl)-3-(4-(4-fluorophenethyl)-4-methyl-2,5-dioxoimidazolidin-1-yl)urea] |
| 0.0079 | CC1(CCc2ccc(O)c(F)c2)NC(=O)N(NC(=O)Nc2ccc(Br)cc2)C1=O (stereo not shown) [Compound 47, 1-(4-Bromophenyl)-3-(4-(3-fluoro-4-hydroxyphenethyl)-4-methyl-2,5-dioxoimidazolidin-1-yl)urea] |
| 0.0864 | CC(C)CC1(CCc2ccccc2)NC(=O)N(NC(=O)Nc2ccc(Br)cc2)C1=O (stereo not shown) [Compound 31] |
| < 0.002 | CCC1(CCc2ccccc2)NC(=O)N(NC(=O)Nc2ccc(Br)cc2F)C1=O (stereo not shown) [Compound 29, 1-(4-Bromo-2-fluorophenyl)-3-(4-ethyl-2,5-dioxo-4-(phenethyl)imidazolidin-1-yl)urea] |
| 0.014 | CC1(CCc2ccccc2F)NC(=O)N(NC(=O)Nc2ccc(Br)cc2)C1=O (stereo not shown) [Compound 37, 1-(4-Bromophenyl)-3-(4-(2-fluorophenethyl)-4-methyl-2,5-dioxoimidazolidin-1-yl)urea] |
| 0.0562 | CC1(CCc2ccccc2F)NC(=O)N(NC(=O)Nc2ccc(Br)cc2F)C1=O (stereo not shown) [Compound 38, 1-(4-Bromo-2-fluorophenyl)-3-(4-(2-fluorophenethyl)-4-methyl-2,5-dioxoimidazolidin-1-yl)urea] |
| 0.0087 | CC1(CCc2ccc(O)cc2)NC(=O)N(NC(=O)Nc2ccc(Br)cc2F)C1=O (stereo not shown) [Compound 45, 1-(4-Bromo-2-fluorophenyl)-3-(4-(4-hydroxyphenethyl)-4-methyl-2,5-dioxoimidazolidin-1-yl)urea] |
| 0.096 | CCC1(CC)NC(=O)N(NC(=O)Nc2ccc(C)cc2)C1=O [Compound 7, 1-(4-Methylphenyl)-3-(4,4-diethyl-2,5-dioxoimidazolidin-1-yl)urea] |
| 0.0749 | CC1(C)NC(=O)N(NC(=O)Nc2ccc(Br)cc2)C1=O [Compound 12, 1-(4-Bromophenyl)-3-(4,4-dimethyl-2,5-dioxoimidazolidin-1-yl)urea] |
| 0.0221 | CC1(COc2ccccc2)NC(=O)N(NC(=O)Nc2ccc(Br)cc2)C1=O (stereo not shown) [Compound 25, 1-(4-Bromophenyl)-3-(4-methyl-2,5-dioxo-4-(phenoxymethyl)imidazolidin-1-yl)urea] |

Same assay, conditions: FPRL-1 Ga16-CHO EC50, CHO-Gα16 cells stably expressing FPRL1; calcium activity on FLIPR Tetra; tested at 0.61 to 10,000 nM

| SMILES | EC50 [µM] |
| --- | --- |
| CCC1(CCc2ccccc2C(=O)OC)NC(=O)N(NC(=O)Nc2ccc(Br)cc2)C1=O (stereo not shown) [Compound 60, Methyl 2-(2-(1-(3-(4-bromophenyl)ureido)-4-ethyl-2,5-dioxoimidazolidin-4-yl)ethyl)benzoate] | 0.0103 |

— patent publication US20130123215A1, “2,5-DIOXOIMIDAZOLIDIN-1-YL-3-PHENYLUREA DERIVATIVES AS FORMYL PEPTIDE RECEPTOR LIKE-1 (FPRL-1) RECEPTOR MODULATORS” (ALLERGAN, INC., priority 2011, published 2013)
